{"source": "patent US9796768B2", "about": "“Peptide inhibitors of sodium channels” (The University of North Carolina at Chapel Hill, priority 2014, dated 2017)", "key": {"ENaC [1]": {"target": "T1, ENaC (Homo sapiens, UniProt P51168)", "T1 construct": "endogenous in cells; host or cells: primary human bronchial epithelial cultures (HBECs) at air-liquid interface", "T1 sequence (P37088 whole entry partner)": "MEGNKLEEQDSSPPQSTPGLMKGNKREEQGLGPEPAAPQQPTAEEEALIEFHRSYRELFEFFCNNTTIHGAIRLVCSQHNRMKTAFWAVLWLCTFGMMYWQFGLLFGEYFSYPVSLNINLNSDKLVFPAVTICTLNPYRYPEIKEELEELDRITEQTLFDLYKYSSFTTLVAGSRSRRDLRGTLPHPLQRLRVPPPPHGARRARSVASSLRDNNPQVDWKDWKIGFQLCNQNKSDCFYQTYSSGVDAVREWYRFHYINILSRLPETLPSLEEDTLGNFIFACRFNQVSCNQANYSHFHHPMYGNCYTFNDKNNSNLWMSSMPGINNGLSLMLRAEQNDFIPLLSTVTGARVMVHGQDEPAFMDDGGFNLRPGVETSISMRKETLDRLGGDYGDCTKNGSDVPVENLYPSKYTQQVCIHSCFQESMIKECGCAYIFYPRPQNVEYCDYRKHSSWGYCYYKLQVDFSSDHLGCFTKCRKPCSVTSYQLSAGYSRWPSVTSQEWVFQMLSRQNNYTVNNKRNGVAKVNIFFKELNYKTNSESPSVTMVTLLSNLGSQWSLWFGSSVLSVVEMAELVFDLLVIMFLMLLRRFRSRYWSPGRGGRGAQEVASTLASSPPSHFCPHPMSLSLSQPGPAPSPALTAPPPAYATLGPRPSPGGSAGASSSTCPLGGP", "T1 sequence (P51168 whole entry)": "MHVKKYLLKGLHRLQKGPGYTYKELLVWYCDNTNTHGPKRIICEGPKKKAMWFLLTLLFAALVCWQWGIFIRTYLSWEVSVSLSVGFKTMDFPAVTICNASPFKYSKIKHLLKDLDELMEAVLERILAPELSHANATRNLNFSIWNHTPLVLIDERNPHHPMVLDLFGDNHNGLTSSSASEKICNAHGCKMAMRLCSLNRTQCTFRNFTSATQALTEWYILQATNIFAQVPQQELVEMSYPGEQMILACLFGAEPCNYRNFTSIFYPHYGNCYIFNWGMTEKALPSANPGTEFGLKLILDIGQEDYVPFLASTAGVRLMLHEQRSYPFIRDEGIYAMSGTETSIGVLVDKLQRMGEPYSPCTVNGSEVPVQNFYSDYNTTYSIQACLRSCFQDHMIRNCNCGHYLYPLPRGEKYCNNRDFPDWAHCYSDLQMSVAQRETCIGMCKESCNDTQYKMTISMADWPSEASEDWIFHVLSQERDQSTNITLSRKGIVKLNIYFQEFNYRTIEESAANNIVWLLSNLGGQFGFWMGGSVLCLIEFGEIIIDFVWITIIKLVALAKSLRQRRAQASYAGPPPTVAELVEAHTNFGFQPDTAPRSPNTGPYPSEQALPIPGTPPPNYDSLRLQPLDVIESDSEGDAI", "T1 sequence (P51170 whole entry partner)": "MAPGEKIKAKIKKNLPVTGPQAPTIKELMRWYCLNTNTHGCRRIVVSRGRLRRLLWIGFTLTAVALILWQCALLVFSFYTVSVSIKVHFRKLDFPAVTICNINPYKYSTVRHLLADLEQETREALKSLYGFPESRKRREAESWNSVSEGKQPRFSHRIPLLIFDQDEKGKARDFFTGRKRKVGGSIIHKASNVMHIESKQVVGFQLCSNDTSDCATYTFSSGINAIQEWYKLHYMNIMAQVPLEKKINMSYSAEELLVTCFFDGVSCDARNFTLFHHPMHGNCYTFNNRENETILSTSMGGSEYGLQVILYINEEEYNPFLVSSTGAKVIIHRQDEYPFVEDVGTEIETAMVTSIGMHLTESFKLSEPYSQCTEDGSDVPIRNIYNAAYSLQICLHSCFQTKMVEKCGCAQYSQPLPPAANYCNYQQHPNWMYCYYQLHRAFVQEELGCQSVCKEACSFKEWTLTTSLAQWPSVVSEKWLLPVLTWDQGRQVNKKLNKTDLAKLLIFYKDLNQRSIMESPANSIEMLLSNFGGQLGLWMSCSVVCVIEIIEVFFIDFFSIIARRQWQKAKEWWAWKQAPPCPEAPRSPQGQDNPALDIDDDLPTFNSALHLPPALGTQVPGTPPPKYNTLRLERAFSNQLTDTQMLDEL", "experiment": "Airway surface liquid (ASL) height in human bronchial epithelial cultures by XZ-confocal microscopy (ENaC-led fluid absorption)", "format": "cell-based", "conditions": "for potency in ASL height dose response relative to S18: dose responses in airway cultures (FIGS. 3A-3B, 4); for activity on inhibition of ENaC / preservation of ASL height, compared with S18: peptides added mucosally to HBECs at 30 μM, ASL height measured 3 h later (FIG. 2); for efficacy in ASL height dose response relative to S18: dose responses in airway cultures (FIGS. 3A-3B)", "excerpt": "Cells were harvested by enzymatic digestion from human bronchial tissue as previously described under a protocol approved by the UNC School of Medicine IRB (Tarran et al., J. Gen. Physiol. 127:591 (2006)). Human excess donor lungs and excised recipient lungs were obtained at the time of lung transplantation from portions of main stem or […] bronchi and cells were harvested by enzymatic digestion. All preparations were maintained at an air-liquid interface in a modified bronchial epithelial medium and used 2-5 weeks after seeding on 12 mm T-Clear inserts (Corning Costar) coated with human placental type VI collagen (Sigma). Phosphate buffered saline (PBS) was used for washing human bronchial epithelial culture mucosal surfaces.\nTo label airway surface liquid, Ringer containing Texas Red-dextran (2 mg/ml; Invitrogen) was added to human bronchial epithelial culture mucosal surfaces. Perfluorocarbon was added mucosally to prevent evaporation of the airway surface liquid and the culture placed in a chamber containing 100 μl Ringer on the stage of a Leica SP8 confocal microscope with a 63× glycerol immersion objective. 10 points per culture were scanned and an average airway surface liquid height determined. For confocal microscopy human bronchial epithelial cultures were bathed serosally in a modified Ringer solution containing (mM): 116 NaCl, 10 NaHCO3, 5.1 KCl, 1.2 CaCl2, 1.2 MgCl2, 20 TES, 10 glucose, pH 7.4). At all other times, human bronchial epithelial cultures were maintained in a modified BEGM growth medium which contained 24 mM NaHCO3 gassed with 5% CO2. Perfluorocarbon (FC-77) was obtained from 3M and had no effect on ASL height as previously reported.\nD-alanines are noted as lowercase a. All n=6-9. Data are shown as mean±SEM."}, "βENaC-Tg mice": {"tested_on": "βENaC-Tg mice", "format": "in vivo", "excerpt": "Like CF patients, βENaC-Tg mice are disease free at birth, but soon develop obstructive lung disease (Zhou, Z., et al. Am J Respir Crit Care Med 178, 1245-1256 (2008)). C57BL:FVB and C57BL:C3H mixed strains have 90% and 50% mortality, respectively, and the reproducibility of the disease on these backgrounds is sufficiently high that reliable data are produced with n of about 8-10 animals/group. Furthermore, the βENaC-Tg mouse responds to therapeutic interventions in a fashion similar to CF/COPD in humans, and the development of lung disease can be prevented following inhibition of lung disease at birth (Livraghi, A., et al. J Immunol 182, 4357-4367 (2009)). S18-derived peptides or vehicle were dosed one to three times a day by intranasal instillation (1 μl/g body weight) for 14 days in parallel cohorts of mice. Mice were weighed daily and, if a diuretic effect was found, the volume excreted was replaced by sub-cutaneous injections of sterile saline. At the end of the treatment, mice were sacrificed for phenotypic analysis."}, "Heat stability": {"experiment": "Heat stability", "format": "physicochemical"}, "ENaC [2]": {"target": "T1, ENaC", "conditions": "previously demonstrated (Hobbs et al., 2013); cited from earlier work"}, "[3]": {"conditions": "βENaC-Tg C57BL:C3H mice, fourteen-day treatment (FIGS. 7C, 7D, 7F)"}}, "note": "Entries after “also recorded” stand apart in the source; their conditions may differ. Like-named read-outs stand apart in the source and are kept apart here. Non-standard residues stand in square brackets, D forms with d. Residues, ends and D or L forms follow the SMILES beside them. No end group written: not given here. Nle = CCCC[C@H](N)C(=O)O"}
{"molecule": "CCCC[C@H](NC(=O)[C@@H]1CCCN1C(=O)[C@H](CC(C)C)NC(=O)[C@@H](C)NC(=O)[C@@H](C)N)C(=O)N1CCC[C@H]1C(=O)N[C@@H](CC(C)C)C(=O)N[C@@H](CC(=O)O)C(=O)N[C@@H](CCC(N)=O)C(=O)N[C@H](C(=O)N[C@H](C)C(=O)N[C@H](C)C(N)=O)[C@@H](C)O", "note": "[SEQ ID NO:5, aaLPNlePLDQTaa] (H-[dA][dA]LP[Nle]PLDQT[dA][dA]-NH2; N-terminus assumed)", "values": [{"measurement": "IC50", "setting": "ENaC [1]; additional dose response, fresh batch of airway cells (FIG. 4)", "result": 30, "unit": "nM"}, {"measurement": "potency in ASL height dose response relative to S18", "setting": "ENaC [1]", "result": "log-fold increase in potency; also recorded: significant increase in potency; also recorded: increased potency"}]}
{"molecule": "CC[C@H](C)[C@H](NC(=O)[C@@H]1CCCN1C(=O)[C@H](CC(C)C)NC(=O)[C@@H](C)NC(=O)[C@@H](C)N)C(=O)N1CCC[C@H]1C(=O)N[C@@H](CC(C)C)C(=O)N[C@@H](CC(=O)O)C(=O)N[C@@H](CCC(N)=O)C(=O)N[C@H](C(=O)N[C@H](C)C(=O)N[C@H](C)C(N)=O)[C@@H](C)O", "note": "[SEQ ID NO:128, aaLPIPLDQTaa] (H-[dA][dA]LPIPLDQT[dA][dA]-NH2)", "values": [{"measurement": "percent survival", "setting": "βENaC-Tg mice; [3]", "result": "increased percent survival"}, {"measurement": "percent survival", "setting": "βENaC-Tg mice; βENaC-Tg C57BL:C3H mice, once daily dosing (FIG. 7E left panel)", "result": "increased percent survival"}, {"measurement": "percent survival", "setting": "βENaC-Tg mice; βENaC-Tg C57BL:FVB mice, fourteen-day treatment, inhaled (FIG. 7B)", "result": "more effective than inhaled SEQ ID NO:142"}]}
{"molecule": "DQTLPLNVNP (also: C-terminal amide, amidation at residue 8) [SEQ ID NO:114]", "values": [{"measurement": "activity on inhibition of ENaC / preservation of ASL height, compared with S18", "setting": "ENaC [1]", "result": "inactive"}]}
{"molecule": "H-GGLPVPLDQTLPLNVNPA-NH2 [S18]", "values": [{"measurement": "heat stability", "setting": "Heat stability", "result": "heat-stable"}, {"measurement": "EC50 of ENaC inhibition", "setting": "ENaC [2]", "result": "sub micromolar range"}, {"measurement": "duration of ENaC inhibition following a single dose", "setting": "ENaC [2]", "result": "up to 24 h"}]}
{"molecule": "H-LPVPLDQT-NH2 [SEQ ID NO:113, LPVPLDQT]", "values": [{"measurement": "activity on inhibition of ENaC / preservation of ASL height, compared with S18", "setting": "ENaC [1]", "result": "retained similar activity to 518; also recorded: required for inhibition of ENaC and preservation of ASL height"}]}
{"molecule": "SEQ ID NO:127: NH3-L-P-I-P-L-D-Q-T-NH2 (H-LPIPLDQT-NH2)", "values": [{"measurement": "percent survival", "setting": "βENaC-Tg mice; [3]", "result": "increased percent survival"}]}
{"molecule": "aaLPVPLDQSaa ([dA][dA]LPVPLDQS[dA][dA]-NH2; N-terminus assumed; SMILES CC(C)C[C@H](NC(=O)[C@@H]1CCCN1C(=O)[C@@H](NC(=O)[C@@H]1CCCN1C(=O)[C@H](CC(C)C)NC(=O)[C@@H](C)NC(=O)[C@@H](C)N)C(C)C)C(=O)N[C@@H](CC(=O)O)C(=O)N[C@@H](CCC(N)=O)C(=O)N[C@@H](CO)C(=O)N[C@H](C)C(=O)N[C@H](C)C(N)=O) [SEQ ID NO:9, a = D-alanine]", "values": [{"measurement": "potency in ASL height dose response relative to S18", "setting": "ENaC [1]", "result": "diminished potency"}]}
{"molecule": "aaLPVPLDQTLPLNVNPaa ([dA][dA]LPVPLDQTLPLNVNP[dA][dA]-NH2; N-terminus assumed; SMILES CC(C)C[C@H](NC(=O)[C@@H]1CCCN1C(=O)[C@H](CC(C)C)NC(=O)[C@@H](NC(=O)[C@H](CCC(N)=O)NC(=O)[C@H](CC(=O)O)NC(=O)[C@H](CC(C)C)NC(=O)[C@@H]1CCCN1C(=O)[C@@H](NC(=O)[C@@H]1CCCN1C(=O)[C@H](CC(C)C)NC(=O)[C@@H](C)NC(=O)[C@@H](C)N)C(C)C)[C@@H](C)O)C(=O)N[C@@H](CC(N)=O)C(=O)N[C@H](C(=O)N[C@@H](CC(N)=O)C(=O)N1CCC[C@H]1C(=O)N[C@H](C)C(=O)N[C@H](C)C(N)=O)C(C)C) [SEQ ID NO:2, a = D-alanine]", "values": [{"measurement": "efficacy in ASL height dose response relative to S18", "setting": "ENaC [1]", "result": "equal potency and efficacy"}, {"measurement": "potency in ASL height dose response relative to S18", "setting": "ENaC [1]", "result": "equal potency"}]}
{"molecule": "aaLPVPLDQTaa ([dA][dA]LPVPLDQT[dA][dA]-NH2; N-terminus assumed; SMILES CC(C)C[C@H](NC(=O)[C@@H]1CCCN1C(=O)[C@@H](NC(=O)[C@@H]1CCCN1C(=O)[C@H](CC(C)C)NC(=O)[C@@H](C)NC(=O)[C@@H](C)N)C(C)C)C(=O)N[C@@H](CC(=O)O)C(=O)N[C@@H](CCC(N)=O)C(=O)N[C@H](C(=O)N[C@H](C)C(=O)N[C@H](C)C(N)=O)[C@@H](C)O) [SEQ ID NO:3, a = D-alanine]", "values": [{"measurement": "efficacy in ASL height dose response relative to S18", "setting": "ENaC [1]", "result": "did not affect its potency or efficacy; also recorded: equal potency and efficacy"}, {"measurement": "potency in ASL height dose response relative to S18", "setting": "ENaC [1]", "result": "identical dose responses; also recorded: equal potency"}]}
{"molecule": "aaLPVPNleDQTaa [SEQ ID NO:6]", "values": [{"measurement": "efficacy in ASL height dose response relative to S18", "setting": "ENaC [1]", "result": "diminished"}]}
